Assay: Binding of human sera to a glycan microarray, measured by fluorescent anti-human antibodies
Settings: human sera (n=10), FIG. 1
Description: FIG. 1 provides an analysis of binding of human sera (n=10) to a glycan microarray measured by fluorescent anti-human antibodies.
To identify carbohydrates that are naturally or inherently antigenic to the human immune system, one can screen human serum antibodies against immobilized glycans (see FIG. 1). This may reveal carbohydrates, and/or carbohydrate arrangements which are recognised as “non-self”. […] By incorporating rhamnose, or a similar antigenic mimics into the natural oligomannose structure of gp120, the inherent tolerance to the (mannose) sugars of HIV may be overcome.

Row | Compound | antigenicity (human serum antibody reactivity against immobilized glycans)
1 | C[C@H]1O[C@H](O)[C@@H](O)[C@@H](O)[C@@H]1O [alpha-D-rhamnose, 6-deoxy-alpha-D-mannose] | antigenic sugar
2 | Man(α1-2)Man(α1-2)Man(α1-3)Man [D1] | naturally antigenic
3 | OC[C@H]1O[C@H](O)[C@@H](O)[C@@H](O)[C@@H]1O [alpha-D-Mannose] | is not
4 | [Man(α1-2)Man(α1-6)][Man(α1-2)Man(α1-3)]Man [D2D3] | naturally antigenic
